Test [1] deals with L1210. As to the kind of experiment: Cytotoxicity against mouse L1210 cells after 72 hrs by MTT assay. It is filed as functional, cell-based. To be noted: L1210, 72 h. In general terms: Tetrazolium dyes change colour on reduction, which living cells bring about.
Test [2] deals with B16. As to the kind of experiment: Cytotoxicity against mouse B16 cells after 72 hrs by MTT assay. It is filed as functional, cell-based. The note with it: B16, 72 h.
Test [3] concerns A10. As to the kind of experiment: Reduction of microtubules in human A10 cells at 40 uM. Type of test: functional. On the set-up: scale not given: the % may be the effect or the level left.
Test [4] concerns A10. As to the kind of experiment: Reduction of microtubules in […] A10 cells. Type of test: functional, cell-based. The note with it: Rattus norvegicus.

Usually IC50 stands for the concentration that inhibits the measured activity by half. With `COc1cc(OC)c(C2CC(c3cc(OC)ccc3OC)=NN2C(C)=O)c(OC)c1` (stereo not drawn), the figures for the IC50 in test [1] and in test [2] were 33 µM and 69 µM, respectively.
Taken in the same sequence, the figures for `COc1ccc(C2CC(c3cc(OC)c(OC)c(OC)c3)=NN2C(C)=O)cc1[N+](=O)[O-]` (stereo not drawn) were 52 µM and above 100 µM.
As to `COc1ccc(C2CC(c3cc(OC)c(OC)c(OC)c3)=NN2C(C)=O)cc1O` (stereo not drawn), in test [3], the Activity came to 10%. Also, the IC50 in test [1] and in test [2] was above 100 µM in each case.
For the compound `COc1cccc(C2CC(c3cc(OC)c(OC)c(OC)c3)=NN2C(C)=O)c1` (stereo not drawn), the results for the IC50 in test [1] and in test [2] were 44 µM and above 100 µM, respectively.
Taken in the same sequence, the figures for `COc1cc(C2=NN(C(C)=O)C(c3ccc([N+](=O)[O-])cc3)C2)cc(OC)c1OC` (stereo not drawn) were 42 µM and 51 µM.
Take `COc1cc(C2=NN(C(C)=O)C(c3ccc(Cl)cc3)C2)cc(OC)c1OC` (stereo not drawn): the IC50 in test [1] amounted to 30 µM; in test [2], 35 µM.
Taken in the same sequence, the figures for `COc1ccccc1C1CC(c2cc(OC)c(OC)c(OC)c2)=NN1C(C)=O` (stereo not drawn) were 43 µM and above 100 µM.
Taken in the same sequence, the figures for `COc1ccc(C2CC(c3cc(OC)c(OC)c(OC)c3)=NN2)cc1OC` (stereo not drawn) were 42 µM and 44 µM.
Taken in the same sequence, the figures for `COc1ccc(OC)c(C2=NN(C(C)=O)C(c3ccc(OC)c(OC)c3)C2)c1` (stereo not drawn) were 28 µM and 62 µM.
Consider `COc1ccc(OC)c(C2CC(c3cc(OC)c(OC)c(OC)c3)=NN2C(C)=O)c1` (stereo not drawn), for which the IC50 in test [1] and in test [2] was above 100 µM in each case.
On to `COc1cc(C2=NNC(c3cc(OC)c(OC)c(OC)c3)C2)cc(OC)c1OC` (stereo not drawn), for which the IC50 in test [1] amounted to 24 µM; in test [2] it was 56 µM.
A word on the EC50: it is the concentration at which the effect is half-maximal. Take `COc1ccc(C2CC(c3cc(OC)c(OC)c(OC)c3)=NN2)cc1O` (stereo not drawn): the 50% inhibitory concentration (IC50) in test [1] is 0.5 µM; in test [2], 2.1 µM. For the same compound, the EC50 in test [4] amounted to 7.1 µM.
With `COc1ccc(OC)c(C2=NN(C(C)=O)C(c3ccc(OC)c([N+](=O)[O-])c3)C2)c1` (stereo not drawn), the 50% inhibitory concentration (IC50) was 40 µM in test [1] and 58 µM in test [2].
